Article PMC6317893 (Journal of pharmaceutical sciences, 2018)
Like-named read-outs stand apart in the source and are kept apart here.

Legend:
mouse Pgp (Abcb1a, MDR3) [1] = biological target: T1, mouse Pgp (Abcb1a, MDR3) (Mus musculus, UniProt P21447)
mouse Pgp (Abcb1a, MDR3) [2] = biological target: T1, mouse Pgp (Abcb1a, MDR3); test: biochemical
mouse Pgp (Abcb1a, MDR3) [3] = biological target: T1, mouse Pgp (Abcb1a, MDR3); remark: listed apart in the source
mouse Pgp (Abcb1a, MDR3) [4] = biological target: T1, mouse Pgp (Abcb1a, MDR3); conditions: for KSV of acrylamide quenching of Pgp (slope of Stern-Volmer plot): 1 μM Pgp
mouse Pgp (Abcb1a, MDR3) [5] = biological target: T1, mouse Pgp (Abcb1a, MDR3); remark: listed apart in the source
human and mouse Pgp = conditions: study of CNS drugs ref 96; cited from earlier work
Pgp [6] = conditions: Caco-2 cells, cited from earlier work
Pgp [7] = conditions: rats ref 32; cited from earlier work
Pgp [8] = conditions: humans ref 32; cited from earlier work
mouse Pgp (Abcb1a, MDR3) [9] = biological target: T1, mouse Pgp (Abcb1a, MDR3); test: in vitro; conditions: pH 7.4
Pgp [10] = conditions: cited from earlier work
mouse Pgp (Abcb1a, MDR3) [11] = biological target: T1, mouse Pgp (Abcb1a, MDR3); test: biochemical; remark: listed apart in the source

T1 sequence (P21447 whole entry): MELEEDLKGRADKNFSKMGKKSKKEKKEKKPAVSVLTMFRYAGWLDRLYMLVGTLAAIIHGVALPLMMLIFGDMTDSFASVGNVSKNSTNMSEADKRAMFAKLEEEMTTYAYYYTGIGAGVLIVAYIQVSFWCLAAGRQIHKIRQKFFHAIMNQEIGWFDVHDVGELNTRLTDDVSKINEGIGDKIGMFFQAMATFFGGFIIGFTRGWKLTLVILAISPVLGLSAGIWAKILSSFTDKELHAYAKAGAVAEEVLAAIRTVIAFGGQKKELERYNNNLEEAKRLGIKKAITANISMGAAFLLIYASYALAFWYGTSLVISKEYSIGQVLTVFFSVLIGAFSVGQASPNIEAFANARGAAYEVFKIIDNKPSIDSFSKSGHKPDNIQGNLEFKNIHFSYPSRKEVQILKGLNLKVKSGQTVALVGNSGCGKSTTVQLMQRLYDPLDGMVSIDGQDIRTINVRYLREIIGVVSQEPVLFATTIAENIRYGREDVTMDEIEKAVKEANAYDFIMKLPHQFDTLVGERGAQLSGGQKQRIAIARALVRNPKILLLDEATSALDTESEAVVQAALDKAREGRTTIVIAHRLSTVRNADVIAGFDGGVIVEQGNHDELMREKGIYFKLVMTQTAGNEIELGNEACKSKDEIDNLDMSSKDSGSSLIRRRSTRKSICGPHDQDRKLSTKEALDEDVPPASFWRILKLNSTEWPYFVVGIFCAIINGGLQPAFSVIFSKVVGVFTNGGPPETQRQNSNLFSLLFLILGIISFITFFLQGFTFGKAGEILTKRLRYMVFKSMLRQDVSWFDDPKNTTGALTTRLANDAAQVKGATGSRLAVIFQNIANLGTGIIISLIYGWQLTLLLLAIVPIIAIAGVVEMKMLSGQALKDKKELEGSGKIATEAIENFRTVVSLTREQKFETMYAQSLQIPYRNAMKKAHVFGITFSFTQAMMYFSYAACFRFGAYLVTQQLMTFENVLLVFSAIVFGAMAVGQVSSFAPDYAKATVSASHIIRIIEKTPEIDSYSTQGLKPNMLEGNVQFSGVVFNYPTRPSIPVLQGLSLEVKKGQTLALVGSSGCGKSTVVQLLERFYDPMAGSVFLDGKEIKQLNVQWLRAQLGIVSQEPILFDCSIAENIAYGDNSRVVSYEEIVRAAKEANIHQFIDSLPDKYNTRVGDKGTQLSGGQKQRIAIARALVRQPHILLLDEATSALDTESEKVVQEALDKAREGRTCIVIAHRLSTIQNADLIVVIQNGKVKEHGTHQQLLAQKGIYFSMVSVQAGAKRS

C[C@H]1O[C@@H](O[C@H]2[C@@H](O)C[C@H](O[C@H]3[C@@H](O)C[C@H](O[C@H]4CC[C@@]5(C)[C@H](CC[C@@H]6[C@@H]5C[C@@H](O)[C@]5(C)[C@@H](C7=CC(=O)OC7)CC[C@]65O)C4)O[C@@H]3C)O[C@@H]2C)C[C@H](O)[C@@H]1O [digoxin]
KSV,L (Stern-Volmer constant, low concentration phase) (mouse Pgp (Abcb1a, MDR3) [1]; in the presence of 500 μM loperamide, biphasic, fit to Eq. 5, dynamic quenching): 4.59 ± 2.10 µM⁻¹
KSV,H (Stern-Volmer constant, high concentration phase) (mouse Pgp (Abcb1a, MDR3) [1]; in the presence of 500 μM loperamide, biphasic, fit to Eq. 5, static quenching): 0.0241 ± 0.0108 µM⁻¹
Kd (mouse Pgp (Abcb1a, MDR3) [2]): 32 ± 13.4 µM

CN(C)C(=O)C(CCN1CCC(O)(c2ccc(Cl)cc2)CC1)(c1ccccc1)c1ccccc1 [loperamide]
Shape of drug-induced ATPase activation kinetics (mouse Pgp (Abcb1a, MDR3) [3]): biphasic
ATPase activity, apparent maximum (mouse Pgp (Abcb1a, MDR3) [3]; at 7.8 μM drug): around 800 nmol min^−1 mg^−1
ATPase activity at saturating drug (mouse Pgp (Abcb1a, MDR3) [3]; at saturating (500 μM) drug): ~ 400 nmol min^−1 mg^−1
Quenching of intrinsic Pgp fluorescence by the drug (mouse Pgp (Abcb1a, MDR3) [1]; data not shown): did not quench
Increase of acrylamide-quenching KSV (mouse Pgp (Abcb1a, MDR3) [4]; 500 μM versus 7.8 μM drug): about 1.4 M^−1
KSV of acrylamide quenching of Pgp (slope of Stern-Volmer plot) (mouse Pgp (Abcb1a, MDR3) [4]; in the presence of 7.8 μM drug): 0.851 ± 0.002 M⁻¹
KSV of acrylamide quenching of Pgp (slope of Stern-Volmer plot) (mouse Pgp (Abcb1a, MDR3) [4]; in the presence of saturating 500 μM drug): 2.25 ± 0.17 M⁻¹
Average STDD amplification factor (mouse Pgp (Abcb1a, MDR3) [5]; 1 mM drug, 1 μM Pgp in liposomes): ~ 30
STDD amplification factor of aromatic protons (mouse Pgp (Abcb1a, MDR3) [5]; aromatic protons labeled 9–13, 1 mM drug, 1 μM Pgp): ~ 30
Difference of efflux ratios between human and mouse Pgp (human and mouse Pgp): less than 2 fold
Transport at 100 μM (Pgp [6]; 100 μM ref 89): inhibited
Concentration at which transport was highest (Pgp [6]; in vitro ref 89): 5 µM
Levels of loperamide in the presence of cyclosporine A (CsA) (Pgp [7]): elevated levels
Levels of loperamide in the presence of cyclosporine A (CsA) (Pgp [8]): elevated levels
Km (mouse Pgp (Abcb1a, MDR3) [9]): 1.6 ± 0.4 µM
Level in brain, Pgp-knockout mice versus wild-type (Pgp [10]): > 10 fold
Ki (mouse Pgp (Abcb1a, MDR3) [11]): 108 ± 27 µM

CCC(=O)C(CC(C)N(C)C)(c1ccccc1)c1ccccc1 (stereo not shown) [methadone]
ATPase activity at saturating drug (mouse Pgp (Abcb1a, MDR3) [3]): around 800 nmol min^−1 mg^−1
Increase of KD at low loperamide concentration (mouse Pgp (Abcb1a, MDR3) [1]): ~ 5 fold
KSV (Stern-Volmer constant) of drug-induced Pgp fluorescence quenching (mouse Pgp (Abcb1a, MDR3) [1]): 0.0137 ± 0.0022 µM⁻¹
Average STDD amplification factor (mouse Pgp (Abcb1a, MDR3) [5]): ~ 10
Kd (mouse Pgp (Abcb1a, MDR3) [2]): 72.7 ± 11.7 µM
